Test results as given in patent publication US10512656B2, “Compositions and methods for the treatment of lysosomal storage disorders and disorders characterized by lysosomal dysfunction” (Baylor College of Medicine, priority 2016, dated 2019).

What was measured:
[1] = system: CLEAR genes; experiment: Real-time qPCR of CLEAR genes in control and JNCL fibroblasts; format: cell-based, human; conditions: treated versus untreated
Method: Control (Coriell Institute, USA) and JNCL fibroblasts (Gaslini Institute, Italy) were grown in DMEM (1:1, HyClone) supplemented with 10% heat-inactivated fetal bovine serum (FBS, Atlanta Biologicals), 2 mM L-glutamine, 100 U/ml penicillin and […] streptomycin (Invitrogen). HeLa cells were incubated for 2 h with LY294002 ([…], Cell Signaling), Torin 1 (300 nM, Cayman Chemical) or for 24 h with trehalose (100 mM, Sigma), rapamycin (300 nM, Sigma), MK2206 (1 μM, Selleckchem), U0126 ([…], Tocris) and dialyzed serum (GE Healthcare Life Sciences) for 30 min.
Total RNA was extracted from the control and JNCL fibroblasts and from WT and Cln3^Δex7-8 cortical neuron cultures using the RNEasy kit (Qiagen) according to the manufacturer's instructions. Half of the mouse brain was processed for the RNA extraction and one microgram was used for complementary DNA synthesis by QuantiTect Reverse Transcription kit (Qiagen). The primers for PCR with reverse transcription reactions are listed in Table St Quantitative real-time PCR was performed by using iQ SYBR Green Supermix on the CFX96 Touch Real-Time Detection System (Bio-Rad Laboratories). […] Relative gene expression was determined using the ΔΔCT method, normalizing to GAPDH (for human genes) and cyclophilin (for mouse genes). […]

[2] = system: Cln3^Δex7-8 mice; experiment: Storage burden (autofluorescent storage material, confocal thresholding); format: in vivo, mouse; conditions: S1BF and VPM/VPL, 7- and 12-month-old Cln3^Δex7-8 mice
Method: To analyse the relative level of the autofluorescent storage material present in each brain region, mouse brain sections spanning the S1BF and VPM/VPL were mounted onto gelatin-chrome-coated slides and cover-slipped with Vectashield (Vector Laboratories, Peterborough, UK). Non-overlapping images from each section were captured at ×63 magnification using a Leica SP5 confocal microscope and a 488 nm excitation laser (Leica Microsystem). Thresholding image analysis was performed to determine the storage burden present in each region. During image capture, all laser parameters and calibrations were kept constant. Semiquantitative thresholding image analysis was carried out using ImageJ (NIH).

[3] = system: LAMP1; experiment: LAMP1 immunoblot in primary cortical astrocyte cultures; format: cell-based, mouse; conditions: astrocytes from WT and Cln3^Δex7-8 mice, 100 mM trehalose 4 days
Method: Astrocytes were isolated from P0-1 mice and plated on poly-D-lysine coated six-well plates (BD Biosciences) in the presence of DMEM high glucose, supplemented with 10% FBS and 100 U/ml penicillin and […] streptomycin. After 7 days, the glial cell layer was removed and astrocytes were plated for treatment. An amount of 100 mM of trehalose was dissolved in the media the day after and kept for 4 days. Finally, astrocytes were collected and protein extracts were analysed by western blot assay.
Brain tissue and cultured cells were collected and lysed in RIPA buffer (50 mM Tris-HCl, ph 7.4, 1% NP40, 0.5% Na-deoxycholate, 0.1% SDS, 150 mM NaCl, 2 mM EDTA and 50 mM NaF) including a cocktail of protease (Roche) and phosphatase (SIGMA) inhibitors. Protein concentrations were measured with the bicinchoninic acid protein assay kit (Pierce, Rockford, Ill.), using bovine serum albumin as standard. Lysates were separated via SDS-polyacrylamide gel electrophoresis (PAGE) and then transferred to nitrocellulose membranes. Blots were incubated in blocking buffer (5%, w/v, dried skimmed milk in Tris-buffered saline, pH 7.4 and 0.2% Tween 20, TBST) followed by overnight incubation with appropriate antibodies diluted in blocking buffer (5% dry milk). Western blot images were acquired by LAS 4000 (GE Healthcare) and quantified using ImageJ. Images have been cropped for presentation.

[4] = system: Cln3^Δex7-8 mice; experiment: Wet brain weight; format: in vivo, mouse; conditions: 12-month-old Cln3^Δex7-8 mice, trehalose treatment; untreated 0.355±0.024 g, WT 0.516±0.021 g
Method: Cln3^Δex7-8 mice (stock no. 004685; Cln3^tm1.1Mem/J; CD-1 background)^32 were obtained from the Jackson Laboratory. Control (CD-1) and Cln3^Δex7-8 mice were housed 3-4 per cage in a room with a 12-h light/12-h dark cycle. Food and water were provided ad libitum. All mice used in this study were analyzed at 8 and 12 months of age and were littermates produced by crossing heterozygous Cln3^Δex7-8 mice. Only males were used for this analysis. Investigators were blinded when analyzing the data, and no randomization was necessary. No data were excluded from this study.
Trehalose (Swanson) was dissolved in drinking water to a final concentration of 2% and changed twice a week. Trehalose-containing water was given to Cln3^Δex7-8 and WT mice by spontaneous oral administration starting at 21 days of age and continuing until the day the mice died naturally (life span assessment) or were sacrificed for other studies.

[5] = system: Cln3^Δex7-8 mice; experiment: Microglial activation, CD68 immunohistochemistry; format: in vivo, mouse
Method: Brains were subsequently removed and postfixed overnight. Before sectioning, the brains were cryoprotected in a solution containing 30% sucrose in Tris-buffered saline (TBS: 50 mM Tris, pH 7.6). Consecutive […] floating coronal sections were collected in 96-well plates. Series of sections were then stained with primary antisera against CD68 or GFAP, followed by either rabbit anti-rat (VectorLab) and swine anti-rabbit (DAKO) secondary antibodies, and immunoreactivity detected with Vectastain ABC (avidin-biotin) kit (Vector) and diaminobenzidine as a chromogen.
Thirty non-overlapping images were captured, on three consecutive sections, through each region of interest. All RGB images were captured via a live video camera (JVC, 3CCD, KY-F55B), mounted onto a Zeiss Axioplan microscope using a ×40 objective and saved as JPEGs. All parameters including lamp intensity, video camera set-up and calibration were maintained constant throughout image capturing. Images were subsequently analysed using ImageJ analysis software (NIH), using an appropriate threshold that selected the foreground immunoreactivity above background. This threshold was then applied as a constant to all subsequent images analysed per batch of animals and reagent used to determine the specific area of immunoreactivity for each antigen in each region. This analysis was performed blind to genotype. […]

Q: Which results are given for `OC[C@H]1O[C@H](O[C@H]2O[C@H](CO)[C@@H](O)[C@H](O)[C@H]2O)[C@H](O)[C@@H](O)[C@@H]1O` [trehalose, a-D-glucopyranosyl a-D-glucopyranoside]?
A: expression of CLEAR genes [1]: increased expression of tested CLEAR genes; punctate autofluorescent storage material [2]: significantly reduced; LAMP1 levels [3]: increased LAMP1 levels; wet brain weight [4]: 0.473 ± 0.028 g; microglial activation (CD68) ([5]; S1BF region, 7 months of age): significantly rescued; reduction of microglial activation (CD68) ([5]; VPM/VPL region, 12 months of age): 48%
